Measured values taken from patent publication US20250269072A1, “PROCESSES FOR PREPARING RADIOLABELLED CONJUGATES” (CENTENARY INSTITUTE OF CANCER MEDICINE AND CELL BIOLOGY, priority 2021, published 2025).
Several values for one entry are separate records, joined by “and”; a condition that tells them apart may be missing. Identical values can stand only once. Entries after “also recorded” stand apart in the source; their conditions may differ.

What was measured:
Assay type in all cases: in vivo
tumor deposits = experiment: In-human study of ^68Ga-CDI: tumor uptake
Method: Eight serial PET scans were then performed from skull vertex to the proximal femora. The first PET scan commenced immediately following administration of ^68Ga-CDI, with subsequent scans commencing at approximately 7, 17, 29, 47, 64, 120 and 180 minutes after administration (+/−5 minutes). All scans were performed on a Phillips ingenuity TF 128 PET CT scanner (Philips Medical Systems, Cleveland) with acquisition times increasing for each subsequent scan ranging from 30 s/bed (immediately after administration) to 240 s/bed (at 180 minutes after administration) to compensate for excretion and decay. All PET scans were reconstructed using CT attenuation correction with a time of flight, list-mode, blob-based, ordered subsets maximum likelihood expectation maximization algorithm (BLOB-OS-TF) (reconstructed voxel size 4×4×4 mm).
For analysis of uptake and biodistribution in normal tissues and organs, spherical volumes of interest (VOIs) were drawn on the Digital Imaging and Communications in Medicine (DICOM) ^68Ga-CDI-PET emission data on a workstation (IntelliSpace Portal, V5.0.2.60000, Philips Medical System, Best, The Netherlands) by an experienced nuclear medicine physician over clearly tumor-free regions of organs. VOI diameter varied depending on organ size but where possible was at least 10 mm. Spherical VOIs were also drawn over all tumor deposits greater than 10 mm in diameter. These VOIs were replicated across all time points and the mean, maximum and standard deviation of the activity concentration (Bq/mL) of all VOIs at each time point was recorded. Activity concentration was used to calculate the % injected activity (% IA) for organs and tissues based on the masses of source organs for standard phantom male and female models (Stabin & Siegel, Health Phys. 2003; 85:294-310). Mean, maximum and standard deviation of the SUV for each VOI was also a calculated from the activity concentration using the slope intercept stored with the DICOM CDI PET emission data.

Human studies: safety = settings: patients 1-4, 200-207 MBq
Source text: patient with squamous cell carcinoma of the oesophagus • 2. Person with metastatic ovarian carcinoma • 3. Person with metastatic cutaneous squamous cell carcinoma • 4. Person with invasive ductal breast carcinoma.

[1] = In-human study of ^68Ga-CDI: radiation dosimetry (OLINDA/EXM 1.1); settings: 5 participants
Source text: Activity concentrations derived above were entered into OLINDA/EXM 1.1 and bi-exponential curves fitted using the curve fitting tools within OLINDA/EXM 1.1 (Stabin et al., J Nucl Med. 2005; 46:1023-1027).

O=C(O)CNC(=O)[C@H](CSCC(=O)Nc1ccc([As](O)O)cc1)NC(=O)CC[C@H](NC(=O)CCC1C(=O)[O][68Ga]2[O]C(=O)CN3CCN(CCN1CC3)CC(=O)[O]2)C(=O)O (stereo partly drawn) [^68Ga-NODAGA-GSAO]
tumor uptake SUVmax (tumor deposits; breast carcinoma): 2.5
tumor uptake SUVmax (tumor deposits; metastatic colorectal carcinoma): 4.4
tumor uptake SUVmax (tumor deposits; metastatic cutaneous squamous cell carcinoma): 6.5
tumor uptake SUVmax (tumor deposits; metastatic ovarian carcinoma): 2.7
tumor uptake SUVmax (tumor deposits; squamous cell carcinoma of the oesophagus): 5.7
tumor retention (tumor deposits; tumor in 4 of the 5 patients): prolonged retention throughout the duration of imaging
adverse events (Human studies: safety): no related or unrelated serious adverse events or adverse events; also recorded: safe, well-tolerated and without adverse effects
Estimated radiation dose, Average ([1]; Adrenals): 1.28E−02 mSv/MBq
Estimated radiation dose, Average ([1]; Brain): 1.75E−03 mSv/MBq
Estimated radiation dose, Average ([1]; Breasts): 7.03E−03 mSv/MBq
Estimated radiation dose, Average ([1]; Effective dose, listed as 68Ga-CDI): 2.17E-02±4.61E-03 mSv/MBq and 2.17E−02 mSv/MBq
Estimated radiation dose, Average ([1]; Gallbladder Wall): 8.16E−03 mSv/MBq
Estimated radiation dose, Average ([1]; Heart Wall): 1.02E−02 mSv/MBq
Estimated radiation dose, Average ([1]; Kidneys, listed as 68Ga-CDI): 4.89E-02±3.55E-03 mSv/MBq and 4.89E−02 mSv/MBq
Estimated radiation dose, Average ([1]; LLI Wall): 1.91E−02 mSv/MBq
Estimated radiation dose, Average ([1]; Liver): 1.61E−02 mSv/MBq
Estimated radiation dose, Average ([1]; Lungs): 7.75E−03 mSv/MBq
Estimated radiation dose, Average ([1]; Muscle): 8.96E−03 mSv/MBq
Estimated radiation dose, Average ([1]; Osteogenic Cells): 1.13E−02 mSv/MBq
Estimated radiation dose, Average ([1]; Ovaries): 1.20E−02 mSv/MBq
Estimated radiation dose, Average ([1]; Pancreas): 1.52E−02 mSv/MBq
Estimated radiation dose, Average ([1]; Red Marrow): 8.89E−03 mSv/MBq
Estimated radiation dose, Average ([1]; Skin): 5.39E−03 mSv/MBq
Estimated radiation dose, Average ([1]; Small Intestine): 1.45E−02 mSv/MBq
Estimated radiation dose, Average ([1]; Spleen): 1.59E−02 mSv/MBq
Estimated radiation dose, Average ([1]; Stomach Wall): 1.00E−02 mSv/MBq
Estimated radiation dose, Average ([1]; Testes): 1.67E−02 mSv/MBq
Estimated radiation dose, Average ([1]; Thymus): 6.32E−03 mSv/MBq
Estimated radiation dose, Average ([1]; Thyroid): 1.26E−02 mSv/MBq
Estimated radiation dose, Average ([1]; Total Body): 9.66E−03 mSv/MBq
Estimated radiation dose, Average ([1]; ULI Wall): 1.23E−02 mSv/MBq
Estimated radiation dose, Average ([1]; Urinary Bladder Wall, listed as 68Ga-CDI): 2.79E-01±1.11E-01 mSv/MBq and 2.79E−01 mSv/MBq
Estimated radiation dose, Average ([1]; Uterus): 2.63E−02 mSv/MBq
